# Data reported in ChEMBL document CHEMBL1201862, “PubChem BioAssay data set” (2004).
# Calls of active or inactive are those of the source.
# Tests used:
# Cytochrome P450 2C19 = Cytochrome P450 2C19 (Homo sapiens, UniProt P33261); experiment: Cytochrome panel assay with activity outcomes. Panel member name: p450-cyp2c19 Compounds with AC50 equal or less than 10 uM are considered active; assay type: functional; conditions: read-out: AC50
# [1] = target: 1-phosphatidylinositol 4,5-bisphosphate phosphodiesterase gamma-1 (Homo sapiens, UniProt P19174); experiment: Counterscreen for inhibitors of phospholipase C isozymes (PLC-B3): Fluorescence-based biochemical high throughput dose response assay to identify inhibitors of phospholipase C isozymes (PLC-gamma1).
# 1-phosphatidylinositol 4,5-bisphosphate phosphodiesterase gamma-1, sequence (P19174 whole entry): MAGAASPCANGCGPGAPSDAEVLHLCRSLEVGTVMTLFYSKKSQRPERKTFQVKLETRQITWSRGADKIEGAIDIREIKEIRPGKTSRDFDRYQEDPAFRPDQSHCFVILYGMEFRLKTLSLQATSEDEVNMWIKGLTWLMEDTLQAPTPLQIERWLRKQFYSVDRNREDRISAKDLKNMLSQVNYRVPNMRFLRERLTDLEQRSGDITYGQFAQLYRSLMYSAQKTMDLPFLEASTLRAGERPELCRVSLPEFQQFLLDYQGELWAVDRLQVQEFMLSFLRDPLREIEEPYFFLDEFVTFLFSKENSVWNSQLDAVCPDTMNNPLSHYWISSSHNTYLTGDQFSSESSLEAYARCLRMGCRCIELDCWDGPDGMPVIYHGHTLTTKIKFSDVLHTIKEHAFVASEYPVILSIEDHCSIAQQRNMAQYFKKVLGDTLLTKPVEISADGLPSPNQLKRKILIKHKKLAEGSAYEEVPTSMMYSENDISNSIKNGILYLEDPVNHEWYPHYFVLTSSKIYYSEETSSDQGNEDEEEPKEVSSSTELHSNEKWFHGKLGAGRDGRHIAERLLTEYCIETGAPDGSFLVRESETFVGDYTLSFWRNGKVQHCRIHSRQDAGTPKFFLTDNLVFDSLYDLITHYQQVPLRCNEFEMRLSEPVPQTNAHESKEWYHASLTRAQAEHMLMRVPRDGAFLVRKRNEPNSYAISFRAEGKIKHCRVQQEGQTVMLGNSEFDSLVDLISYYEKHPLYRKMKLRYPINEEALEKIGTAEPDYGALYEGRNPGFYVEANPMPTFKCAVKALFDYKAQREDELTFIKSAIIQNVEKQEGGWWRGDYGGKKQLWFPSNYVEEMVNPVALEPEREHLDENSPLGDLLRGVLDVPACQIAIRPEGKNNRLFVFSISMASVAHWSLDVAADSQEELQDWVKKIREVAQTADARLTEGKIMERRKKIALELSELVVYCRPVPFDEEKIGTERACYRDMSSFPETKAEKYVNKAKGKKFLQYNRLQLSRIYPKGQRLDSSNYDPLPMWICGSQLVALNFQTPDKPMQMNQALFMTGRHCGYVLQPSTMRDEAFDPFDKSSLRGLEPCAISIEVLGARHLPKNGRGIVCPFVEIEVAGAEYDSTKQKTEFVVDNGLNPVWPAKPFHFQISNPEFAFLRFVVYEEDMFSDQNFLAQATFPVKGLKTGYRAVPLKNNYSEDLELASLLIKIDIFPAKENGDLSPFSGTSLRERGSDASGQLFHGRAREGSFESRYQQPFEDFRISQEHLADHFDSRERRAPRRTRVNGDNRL
# [2] = target: 1-phosphatidylinositol 4,5-bisphosphate phosphodiesterase beta-3 (Homo sapiens, UniProt Q01970); experiment: Fluorescence-based biochemical high throughput dose response assay to identify inhibitors of phospholipase C isozymes (PLC-B3).
# 1-phosphatidylinositol 4,5-bisphosphate phosphodiesterase beta-3, sequence (Q01970 whole entry): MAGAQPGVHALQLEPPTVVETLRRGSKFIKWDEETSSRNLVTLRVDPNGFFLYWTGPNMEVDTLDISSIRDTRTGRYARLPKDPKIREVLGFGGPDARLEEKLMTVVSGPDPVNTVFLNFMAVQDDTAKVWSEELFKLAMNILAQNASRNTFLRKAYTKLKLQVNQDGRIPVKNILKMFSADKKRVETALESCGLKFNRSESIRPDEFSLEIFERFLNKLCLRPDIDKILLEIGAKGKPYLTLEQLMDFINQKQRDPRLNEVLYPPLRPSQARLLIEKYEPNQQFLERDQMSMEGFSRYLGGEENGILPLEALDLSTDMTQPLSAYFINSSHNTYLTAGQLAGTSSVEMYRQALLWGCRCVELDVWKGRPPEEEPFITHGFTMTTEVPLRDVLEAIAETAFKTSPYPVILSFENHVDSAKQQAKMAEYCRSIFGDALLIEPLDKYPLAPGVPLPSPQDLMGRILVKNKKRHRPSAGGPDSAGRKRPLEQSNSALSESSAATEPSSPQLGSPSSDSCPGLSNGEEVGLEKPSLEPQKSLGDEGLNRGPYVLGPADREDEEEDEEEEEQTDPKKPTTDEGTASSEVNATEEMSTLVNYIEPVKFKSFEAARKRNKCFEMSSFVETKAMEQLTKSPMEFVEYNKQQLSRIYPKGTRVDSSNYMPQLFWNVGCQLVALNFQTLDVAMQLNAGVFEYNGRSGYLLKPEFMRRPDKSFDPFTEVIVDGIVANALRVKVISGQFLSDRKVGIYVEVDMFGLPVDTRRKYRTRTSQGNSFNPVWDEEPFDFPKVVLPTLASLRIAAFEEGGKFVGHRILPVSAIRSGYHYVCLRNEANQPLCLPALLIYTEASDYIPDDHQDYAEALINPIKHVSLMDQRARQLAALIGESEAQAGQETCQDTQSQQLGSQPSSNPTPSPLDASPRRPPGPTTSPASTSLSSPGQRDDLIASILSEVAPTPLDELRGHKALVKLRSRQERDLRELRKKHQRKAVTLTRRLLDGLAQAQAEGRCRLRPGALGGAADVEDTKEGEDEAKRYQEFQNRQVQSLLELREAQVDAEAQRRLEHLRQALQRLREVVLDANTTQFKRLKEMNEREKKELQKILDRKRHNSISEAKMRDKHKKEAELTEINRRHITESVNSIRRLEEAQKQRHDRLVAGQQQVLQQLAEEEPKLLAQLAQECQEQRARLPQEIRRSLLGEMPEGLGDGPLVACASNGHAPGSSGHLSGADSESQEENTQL
# Cytochrome P450 2D6 = Cytochrome P450 2D6 (Homo sapiens, UniProt P10635);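 also: CYP2D6 member of a cytochrome P450 panel assay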
# Cytochrome P450 2D6, sequence (P10635 whole entry): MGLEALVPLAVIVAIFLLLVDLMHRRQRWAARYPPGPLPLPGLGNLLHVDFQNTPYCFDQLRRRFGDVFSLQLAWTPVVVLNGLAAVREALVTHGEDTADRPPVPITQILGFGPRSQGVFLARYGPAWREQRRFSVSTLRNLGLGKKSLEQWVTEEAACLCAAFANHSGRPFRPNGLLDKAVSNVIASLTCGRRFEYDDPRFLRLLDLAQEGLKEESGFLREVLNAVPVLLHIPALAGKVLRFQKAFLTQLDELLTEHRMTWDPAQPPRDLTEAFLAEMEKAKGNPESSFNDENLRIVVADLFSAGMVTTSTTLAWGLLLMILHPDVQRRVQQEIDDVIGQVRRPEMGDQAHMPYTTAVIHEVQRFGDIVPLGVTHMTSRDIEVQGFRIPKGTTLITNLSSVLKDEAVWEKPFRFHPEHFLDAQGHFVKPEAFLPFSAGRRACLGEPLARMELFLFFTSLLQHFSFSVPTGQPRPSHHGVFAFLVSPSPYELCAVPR
# Cytochrome P450 2C9 = Cytochrome P450 2C9 (Homo sapiens, UniProt P11712)
# Cytochrome P450 2C9, sequence (P11712 whole entry): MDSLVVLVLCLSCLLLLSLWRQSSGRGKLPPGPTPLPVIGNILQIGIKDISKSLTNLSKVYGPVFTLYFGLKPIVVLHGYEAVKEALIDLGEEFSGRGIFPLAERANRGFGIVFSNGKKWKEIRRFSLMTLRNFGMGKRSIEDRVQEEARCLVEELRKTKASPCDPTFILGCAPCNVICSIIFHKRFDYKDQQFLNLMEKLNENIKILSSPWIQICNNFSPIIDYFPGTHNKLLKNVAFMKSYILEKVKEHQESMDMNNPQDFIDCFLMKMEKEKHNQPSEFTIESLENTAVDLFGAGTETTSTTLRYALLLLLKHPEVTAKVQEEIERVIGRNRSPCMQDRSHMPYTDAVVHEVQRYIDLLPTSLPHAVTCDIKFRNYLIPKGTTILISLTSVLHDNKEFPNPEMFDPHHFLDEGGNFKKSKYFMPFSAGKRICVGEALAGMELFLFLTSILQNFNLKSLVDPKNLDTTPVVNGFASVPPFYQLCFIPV
# [3] = target: RNA-editing ligase 1, mitochondrial (Trypanosoma brucei brucei, UniProt P86926); experiment: TbREL1 ligase inhibitors, dose response, biochemical, fluorescence, Trypanosoma brucei (AID 1117295); assay type: functional
# RNA-editing ligase 1, mitochondrial, sequence (P86926 whole entry, the tested form may be a part): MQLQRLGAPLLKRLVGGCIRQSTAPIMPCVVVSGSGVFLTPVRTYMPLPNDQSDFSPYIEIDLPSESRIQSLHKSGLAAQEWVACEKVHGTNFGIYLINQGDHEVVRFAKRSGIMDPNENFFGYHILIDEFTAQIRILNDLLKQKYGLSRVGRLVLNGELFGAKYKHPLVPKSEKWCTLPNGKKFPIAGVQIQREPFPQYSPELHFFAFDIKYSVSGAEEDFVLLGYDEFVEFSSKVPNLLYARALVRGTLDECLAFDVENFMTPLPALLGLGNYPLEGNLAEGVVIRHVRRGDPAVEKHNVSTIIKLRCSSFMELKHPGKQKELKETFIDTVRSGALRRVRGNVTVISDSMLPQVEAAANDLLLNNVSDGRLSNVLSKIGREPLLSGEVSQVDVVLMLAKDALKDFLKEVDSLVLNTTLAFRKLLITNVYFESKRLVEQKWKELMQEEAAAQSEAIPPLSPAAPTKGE
# [4] = inhibitors of HIV Env-driven cell fusion, dose response, cherry-pick (AID 652057); assay type: functional, cell-based
# [5] = ZM109 Env clade C HIV-1 fusion inhibitors, dose response, HeLa effector, CEM target cells, luciferase, cherry-pick (AID 652058); assay type: functional, cell-based
# [6] = HIV Env cell-cell fusion inhibitors, dose response, HIV entry, plate reader, dry powder (AID 687023); assay type: functional, cell-based
# [7] = cytotoxicity in HEK-293T cells, dose response, cytotoxicity control for TCR NF-kB inhibitor project, luminescence, T-cell screen hits (AID 489026); assay type: functional, cell-based;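 also: cells exposed to compound about 14 hours before the viability readout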
# Paired box protein Pax-8 = Paired box protein Pax-8 (Homo sapiens, UniProt Q06710); experiment: inhibitors of PAX8-driven TPO luciferase reporter, dose response, RMG-I cells, cherry-pick (AID 687027); assay type: functional, cell-based;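 also: luciferase reporter driven by Pax8 target thyroperoxidase promoter measured by SteadyGlo luminescence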
# Paired box protein Pax-8, sequence (Q06710 whole entry): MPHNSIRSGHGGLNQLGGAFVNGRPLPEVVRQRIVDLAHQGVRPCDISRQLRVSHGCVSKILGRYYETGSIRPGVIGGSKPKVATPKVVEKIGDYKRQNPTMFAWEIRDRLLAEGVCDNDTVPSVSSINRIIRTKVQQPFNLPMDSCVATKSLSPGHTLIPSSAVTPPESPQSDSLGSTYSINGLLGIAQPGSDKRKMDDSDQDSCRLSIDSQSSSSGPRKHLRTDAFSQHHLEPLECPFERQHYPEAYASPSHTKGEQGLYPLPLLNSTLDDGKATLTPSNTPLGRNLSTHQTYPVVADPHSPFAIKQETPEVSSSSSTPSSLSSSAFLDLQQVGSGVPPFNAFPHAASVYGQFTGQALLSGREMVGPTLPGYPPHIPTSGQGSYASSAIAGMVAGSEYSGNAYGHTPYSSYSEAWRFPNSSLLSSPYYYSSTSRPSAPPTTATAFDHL
# [8] = A549 cell cytotoxicity, dose response, cytotoxicity control, plate reader, cherry-pick, antagonist series (AID 743412); assay type: functional, cell-based
# [9] = HepG2 cell cytotoxicity, dose response, cytotoxicity control, plate reader, cherry-pick, antagonist series (AID 743416); assay type: functional, cell-based
# [10] = LGR2 antagonists, dose response, cell-based, HEK293, CRE-luciferase reporter, cherry pick, set 2 (AID 743343); assay type: functional;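 also: transfected cells were stimulated with diluted bursicon conditioned medium after compound addition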
# [11] = non-specific cell cytotoxicity, dose response, cytotoxicity control for PAX8 inhibitor project, plate reader, dry powder samples (AID 743021); assay type: functional, cell-based
# [12] = MC4R antagonists, dose response, counter-screen for LGR2 antagonist project, cell-based, plate reader, cherry pick (AID 743444); assay type: functional;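 also: transfected HEK 293 cells stimulated with alpha-MSH peptide; potency of inhibitors of the alpha-MSH evoked signal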
# [13] = HEK293 cell cytotoxicity, dose response, cytotoxicity control, plate reader, cherry-picked samples (AID 743446); assay type: functional, cell-based
# [14] = A2780 ovarian cancer cell cytotoxicity, dose response, cytotoxicity control, plate reader, dry powder samples (AID 743046); assay type: functional, cell-based
# [15] = NIH:OVCAR-3 ovarian cancer cell cytotoxicity, dose response, PAX8 inhibitor project, plate reader, dry powder samples (AID 743044); assay type: functional, cell-based
# [16] = cytotoxicity in OVCAR8 ovarian cancer cells, dose response, PAX8 project, cell-based, plate reader, dry powder samples (AID 743197); assay type: functional; conditions: OVCAR-8
# [17] = target: T1, Oxysterols receptor LXR-beta (Homo sapiens, UniProt P55055); assay type: functional, cell-based;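 also: Cell-based luminescence dose-response assay of agonist activity at LXR, run as a confirmatory counterscreen to a daf-12 agonist screen; HEK293 cells with Gal4-LXR fusion and GAL4-driven luciferase reporter; agonist potency from rising luciferase signal of a Gal4-LXR reporter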
# T1 sequence (P55055 whole entry): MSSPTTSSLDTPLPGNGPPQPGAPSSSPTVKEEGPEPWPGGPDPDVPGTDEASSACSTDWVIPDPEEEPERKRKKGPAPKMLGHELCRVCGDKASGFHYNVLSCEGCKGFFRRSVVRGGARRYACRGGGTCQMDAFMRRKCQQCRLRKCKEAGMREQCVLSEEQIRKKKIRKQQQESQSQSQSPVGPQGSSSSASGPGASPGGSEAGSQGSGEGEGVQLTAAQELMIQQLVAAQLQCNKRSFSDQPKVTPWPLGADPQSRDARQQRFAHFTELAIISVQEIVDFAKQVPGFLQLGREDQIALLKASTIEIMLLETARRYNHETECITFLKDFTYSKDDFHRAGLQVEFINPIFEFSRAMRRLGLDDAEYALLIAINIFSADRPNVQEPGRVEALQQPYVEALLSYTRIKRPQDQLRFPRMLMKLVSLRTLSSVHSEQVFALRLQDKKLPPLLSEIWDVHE
# [18] = miR-122 activators in hepatoma reporter cells, dose response, cell-based, Huh7 psiCHECK-miR122, Renilla luciferase, cherry-picked (AID 651956); assay type: functional;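 also: huh7 hepatoma cells stably carrying a psiCHECK-2 miR-122 sensor plasmid; renilla luciferase signal reporting endogenous miR-122 activity after 48 h compound exposure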
# [19] = HEK293T cytotoxicity, dose response, cytotoxicity control for miR-122 modulator project, cell-based, activator set, cherry-pick (AID 720690); assay type: functional;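 also: HEK293T human cells scored for general mammalian cytotoxicity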
# Cytochrome P450 2C19, sequence (P33261 whole entry): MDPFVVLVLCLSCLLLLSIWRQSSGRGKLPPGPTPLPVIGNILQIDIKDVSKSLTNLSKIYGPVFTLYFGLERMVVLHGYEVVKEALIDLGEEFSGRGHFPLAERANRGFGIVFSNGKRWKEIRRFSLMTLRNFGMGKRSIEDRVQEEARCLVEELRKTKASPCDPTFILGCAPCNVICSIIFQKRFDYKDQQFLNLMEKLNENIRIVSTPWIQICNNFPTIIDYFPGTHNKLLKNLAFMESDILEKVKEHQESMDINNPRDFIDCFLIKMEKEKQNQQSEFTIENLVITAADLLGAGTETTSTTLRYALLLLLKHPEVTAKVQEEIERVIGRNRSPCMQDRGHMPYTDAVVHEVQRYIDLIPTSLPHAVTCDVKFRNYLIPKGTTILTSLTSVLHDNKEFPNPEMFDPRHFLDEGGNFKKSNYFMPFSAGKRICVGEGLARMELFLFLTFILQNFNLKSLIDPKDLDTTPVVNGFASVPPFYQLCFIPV
smiles,measurement,setting,value
O=C(Nc1cccc2ccccc12)c1ccccc1,AC50,Cytochrome P450 2C19,2.51 µM (inconclusive)
same,IC50,[1],> 123 µM (inactive)
same,IC50,[2],> 123 µM (inactive)
same,AC50,Cytochrome P450 2D6,0.00251 µM (inconclusive)
same,AC50,Cytochrome P450 2C9,inconclusive
COC(=O)C1=C(C)N(Cc2ccccc2C(F)(F)F)C(NCc2ccc(C(F)(F)F)cc2)=NC1c1ccc(C(F)(F)F)cc1 (configuration not stated),IC50,[3],> 96.6 µM (inactive)
Cc1ccc(S(=O)(=O)N(C)C[C@@H]2Oc3ccc(NS(=O)(=O)c4c(C)noc4C)cc3CC(=O)N([C@H](C)CO)C[C@@H]2C)cc1,AC50,[4],23.2 µM (active)
same,AC50,[5],5.38 µM (active)
same,AC50,[6],11.4 µM (active)
c1cc2c(cc1C1=NN=C(NC3CC3)SC1)OCCO2,IC50,[7],> 80 µM (inactive)
same,AC50,Paired box protein Pax-8,2.14 µM (active)
same,AC50,[8],5.39 µM (active)
same,AC50,[9],6.46 µM (active)
same,AC50,[10],0.276 µM (active)
same,AC50,[11],7.92 µM (active)
same,AC50,[12],0.251 µM (active)
same,AC50,[13],4.07 µM (active)
Nc1nc(N)c2c(ccc3c2ccn3Cc2cccc([N+](=O)[O-])c2)n1,AC50,Paired box protein Pax-8,1.5 µM (active)
same,AC50,[11],20.3 µM (active)
Cc1noc(C)c1S(=O)(=O)N(C)C[C@H]1OCCCC[C@@H](C)Oc2ccc(NS(=O)(=O)c3ccc(Cl)cc3)cc2C(=O)N([C@@H](C)CO)C[C@@H]1C,AC50,Paired box protein Pax-8,10.5 µM (active)
same,AC50,[14],12.1 µM (active)
same,AC50,[15],46.2 µM (active)
same,AC50,[16],> 70 µM (inactive)
CC(C)c1ccc(C=NNc2ccc([N+](=O)[O-])cn2)cc1,EC50,[17],> 67.6 µM (inactive)
same,EC50,cells,> 67.6 µM (inactive)
C[C@@H]1CN([C@@H](C)CO)C(=O)Cc2cc(NC(=O)C3CCCCC3)ccc2O[C@H]1CN(C)Cc1ccc(-c2ccccc2)cc1,AC50,[18],14.3 µM (active)
same,AC50,[19],16.8 µM (active)
